Patent US20130035326A1 (AMBIT BIOSCIENCES CORPORATION, priority 2009, published 2013)

Key:
FLT3 kinase = molecular target: T1, FLT3 kinase (Homo sapiens, UniProt P36888); assay: Competition binding assay, FLT3 Kd
T1 construct: made in house; host or cells: T7 phage display or HEK-293 cells
T1 sequence (P36888 27-993): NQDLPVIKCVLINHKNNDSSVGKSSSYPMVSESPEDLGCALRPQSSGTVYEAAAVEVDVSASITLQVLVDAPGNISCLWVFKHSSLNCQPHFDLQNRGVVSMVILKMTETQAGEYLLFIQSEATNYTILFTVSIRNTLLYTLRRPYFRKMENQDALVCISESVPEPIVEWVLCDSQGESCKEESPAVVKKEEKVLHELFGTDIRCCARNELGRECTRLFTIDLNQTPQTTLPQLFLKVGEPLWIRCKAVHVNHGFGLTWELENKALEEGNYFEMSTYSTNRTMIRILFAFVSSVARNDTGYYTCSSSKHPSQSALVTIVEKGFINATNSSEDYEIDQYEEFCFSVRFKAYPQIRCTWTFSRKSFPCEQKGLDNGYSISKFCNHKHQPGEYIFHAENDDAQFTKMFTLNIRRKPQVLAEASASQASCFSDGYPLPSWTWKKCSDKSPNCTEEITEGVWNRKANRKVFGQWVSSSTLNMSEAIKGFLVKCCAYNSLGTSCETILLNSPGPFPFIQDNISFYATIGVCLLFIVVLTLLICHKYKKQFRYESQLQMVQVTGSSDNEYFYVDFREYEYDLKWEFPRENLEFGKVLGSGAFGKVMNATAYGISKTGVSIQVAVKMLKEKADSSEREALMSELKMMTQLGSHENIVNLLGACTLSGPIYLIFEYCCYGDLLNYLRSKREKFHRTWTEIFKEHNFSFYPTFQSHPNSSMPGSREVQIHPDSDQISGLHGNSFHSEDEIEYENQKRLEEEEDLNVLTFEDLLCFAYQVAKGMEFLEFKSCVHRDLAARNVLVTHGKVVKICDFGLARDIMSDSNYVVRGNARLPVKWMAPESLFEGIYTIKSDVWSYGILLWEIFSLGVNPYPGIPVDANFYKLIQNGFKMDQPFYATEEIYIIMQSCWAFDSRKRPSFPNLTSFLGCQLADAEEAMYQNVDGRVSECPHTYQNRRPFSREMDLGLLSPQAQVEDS
Procedure, shortened: (§1)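 Kinases, either T7 phage fusions or HEK-293-expressed and DNA-tagged, competed for immobilised biotinylated affinity ligand against test compound, 1 h at RT in binding buffer with 6 mM DTT. Bound kinase eluted with 0.5 μM free ligand and quantified by qPCR; Kd from 11-point threefold dilutions.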

KIT kinase = molecular target: T2, KIT kinase (Homo sapiens, UniProt P10721); assay: Competition binding assay, KIT Kd
T2 construct: made in house; host or cells: T7 phage display or HEK-293 cells
Procedure, shortened: as §1

CSF-1R kinase = molecular target: T3, CSF-1R kinase (Homo sapiens, UniProt P07333); assay: Competition binding assay, CSF-1R Kd
T3 construct: made in house; host or cells: T7 phage display or HEK-293 cells
Procedure, shortened: as §1

MV4-11 cells = assay: MV4-11 cell proliferation assay (Alamar Blue); type: cell-based; conditions: Homo sapiens, MV4-11, 72 h, 3 days incubation
Procedure, shortened: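 Viability readout: Alamar Blue fluorescence, ex 560/em 590 nm, 3 h after reagent addition, after 3-day exposure of 64,000 MV4-11 cells per well to a 9-point half-log compound series in 0.5% FBS Iscove's. IC50 from duplicate averages, as 50% proliferation inhibition relative to negative control.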

[1] = molecular target: kinase panel containing either 359 or 386 distinct kinases; assay: Selectivity score S10 from competition binding against a panel of kinases; conditions: compounds at 10 μM; panel of 359 distinct kinases
Procedure: Competition binding assays used herein were developed, validated and performed as described in Fabian et al., Nature Biotechnology 2005, 23,329-336. Kinases were produced as fusions to T7 phage (See, Fabian et al. or WO04/015142) or alternatively, the kinases were expressed in HEK-293 cells and subsequently tagged with DNA for PCR detection (See, WO08/005,310). For the binding assays, streptavidin-coated magnetic beads were treated with biotinylated affinity ligands for 30 min at room temperature to generate affinity resins. The liganded beads were blocked with excess biotin and washed with blocking buffer (SeaBlock (Pierce), 1% BSA, 0.05% Tween 20, 1 mM DTT) to remove unbound ligand and to reduce non-specific binding. Binding reactions were assembled by combining kinase, liganded affinity beads, and test compounds in 1× binding buffer (20% SeaBlock, 0.17×PBS, 0.05% Tween 20, 6 mM DTT). Test compounds were prepared as 100× stocks in DMSO and diluted into the aqueous environment. Kds were determined using an eleven point threefold serial dilutions. DMSO or control compounds were was added to control assays lacking a test compound. Primary screen assays were performed in polypropylene 384-well plates in a final volume of 20-40 μL, while Kd determinations were performed in polystyrene 96-well plates in a final volume of 135 μL. The assay plates were incubated at room temperature with shaking for 1 hour to allow the binding reactions to reach equilibrium, and the affinity beads were washed extensively with wash buffer (1×PBS, 0.05% Tween 20) to remove unbound protein. The beads were then resuspended in elution buffer (1×PBS, 0.05% Tween 20, 0.5 μM non-biotinylated affinity ligand) and incubated at room temperature with shaking for 30 min. The kinase concentration in the eluates was measured by quantitative PCR.
A selectivity score (S10) is a quantitative measure of selectivity of a compound against a panel of kinases. An S10 was calculated for a compound by dividing the number of kinases found to have a percent of control (DMSO) less than 10 by the total number of distinct kinases tested (excluding mutant variants). Percent of control (POC) is calculated by subtracting the signal of the control compound (POC=0) from the signal of the test compound and dividing the outcome by the signal of DMSO (POC=100) minus the signal of the control compound. For the compounds disclosed herein, S10 scores were obtained by testing the compounds at 10 μM concentration in a kinase panel containing either 359 or 386 distinct kinases.

T3 sequence (P07333 20-972): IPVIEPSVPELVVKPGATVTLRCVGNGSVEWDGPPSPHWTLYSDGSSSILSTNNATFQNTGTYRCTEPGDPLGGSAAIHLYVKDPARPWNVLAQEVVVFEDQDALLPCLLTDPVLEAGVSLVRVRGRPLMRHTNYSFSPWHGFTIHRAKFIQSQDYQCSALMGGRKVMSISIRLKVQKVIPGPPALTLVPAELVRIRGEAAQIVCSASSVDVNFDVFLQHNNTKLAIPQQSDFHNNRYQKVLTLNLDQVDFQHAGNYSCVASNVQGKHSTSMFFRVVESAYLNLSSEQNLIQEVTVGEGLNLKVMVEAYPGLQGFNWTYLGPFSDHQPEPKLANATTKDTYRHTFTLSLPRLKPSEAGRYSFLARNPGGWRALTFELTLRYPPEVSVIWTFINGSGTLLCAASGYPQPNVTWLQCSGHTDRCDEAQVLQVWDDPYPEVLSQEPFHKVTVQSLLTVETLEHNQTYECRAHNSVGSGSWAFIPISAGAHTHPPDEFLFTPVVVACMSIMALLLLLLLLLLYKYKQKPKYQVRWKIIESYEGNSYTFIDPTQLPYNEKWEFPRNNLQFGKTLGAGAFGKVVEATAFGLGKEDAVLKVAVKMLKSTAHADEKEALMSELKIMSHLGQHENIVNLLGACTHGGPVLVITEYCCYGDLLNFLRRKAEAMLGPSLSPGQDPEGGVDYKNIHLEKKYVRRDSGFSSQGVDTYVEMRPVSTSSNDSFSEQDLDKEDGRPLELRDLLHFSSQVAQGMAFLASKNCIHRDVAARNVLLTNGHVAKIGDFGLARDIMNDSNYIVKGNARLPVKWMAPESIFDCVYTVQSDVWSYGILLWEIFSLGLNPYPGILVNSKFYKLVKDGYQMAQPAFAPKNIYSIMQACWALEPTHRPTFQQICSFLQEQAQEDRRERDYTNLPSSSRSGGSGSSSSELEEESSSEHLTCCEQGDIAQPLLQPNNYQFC
T2 sequence (P10721 26-976): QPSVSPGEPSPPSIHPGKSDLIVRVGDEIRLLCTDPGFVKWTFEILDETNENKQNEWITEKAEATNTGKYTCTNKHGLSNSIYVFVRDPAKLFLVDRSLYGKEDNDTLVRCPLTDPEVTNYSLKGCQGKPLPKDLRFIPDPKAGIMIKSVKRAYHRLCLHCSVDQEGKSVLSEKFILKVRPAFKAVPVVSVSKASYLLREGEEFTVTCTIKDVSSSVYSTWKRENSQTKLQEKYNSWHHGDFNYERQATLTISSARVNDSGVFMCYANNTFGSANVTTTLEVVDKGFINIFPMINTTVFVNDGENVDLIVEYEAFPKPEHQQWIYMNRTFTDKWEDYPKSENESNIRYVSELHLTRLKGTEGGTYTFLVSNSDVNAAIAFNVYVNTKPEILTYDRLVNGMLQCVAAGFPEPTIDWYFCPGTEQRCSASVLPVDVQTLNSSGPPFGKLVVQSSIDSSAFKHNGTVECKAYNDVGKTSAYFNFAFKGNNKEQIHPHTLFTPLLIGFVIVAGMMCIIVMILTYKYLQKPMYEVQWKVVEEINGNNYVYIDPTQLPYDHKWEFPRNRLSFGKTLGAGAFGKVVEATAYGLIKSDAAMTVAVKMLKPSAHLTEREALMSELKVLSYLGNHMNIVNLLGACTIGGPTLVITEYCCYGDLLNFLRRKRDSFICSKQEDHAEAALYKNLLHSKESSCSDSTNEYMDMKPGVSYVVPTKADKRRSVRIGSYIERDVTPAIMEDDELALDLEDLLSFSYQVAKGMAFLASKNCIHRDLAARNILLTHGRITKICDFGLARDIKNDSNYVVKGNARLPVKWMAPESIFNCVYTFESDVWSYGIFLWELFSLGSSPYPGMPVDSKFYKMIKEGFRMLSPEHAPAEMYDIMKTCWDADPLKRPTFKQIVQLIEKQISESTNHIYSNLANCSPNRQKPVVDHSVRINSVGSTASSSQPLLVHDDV

| SMILES | Kd (FLT3 kinase) [nM] | Kd (KIT kinase) [nM] | Kd (CSF-1R kinase) [nM] | IC50 (MV4-11 cells) [nM] | Kinase specificty: S(10)-359 panel [1] |
| --- | --- | --- | --- | --- | --- |
| Nc1ncc(-c2ccc(NC(=O)Cc3cccc(C(F)(F)F)c3)cc2)cn1 [Example 46, N-(4-(2-aminopyrimidin-5-yl)phenyl)-2-(3-(trifluoromethyl)phenyl)acetamide] | 1 to 10 | ≤ 1 | 10 to 100 | 10 to 100 | A (A≦0.1) |
| CC(C)(C)c1cc(NC(=O)Nc2ccc(-c3cnc(OCCN4CCOCC4)nc3)cc2)no1 [Example 47, 1-(5-tert-Butyl-isoxazol-3-yl)-3-{4-[2-(2-morpholin-4-yl-ethoxy)-pyrimidin-5-yl]-phenyl}-urea] | 1 to 10 | 1 to 10 | 10 to 100 | 10 to 100 | A (A≦0.1) |
| CC(CF)(CF)c1cc(NC(=O)Nc2ccc(-c3cnc(NCCN4CCOCC4)nc3)cc2)no1 [Example 52, 1-[5-(2-fluoro-1-fluoromethyl-1-methylethyl)isoxazol-3-yl]-3-{4-[2-(2-morpholin-4-yl-ethylamino)pyrimidin-5-yl]phenyl}urea] | ≤ 1 | ≤ 1 | ≤ 10 | 1 to 10 | B (0.1<B≦0.2 nM) |
| O=C(Nc1ccc(-c2cnc(NCCN3CCOCC3)nc2)cc1)Nc1cc(C2(C(F)(F)F)CC2)on1 [Example 53, 1-{4-[2-(2-morpholin-4-yl-ethylamino)-pyrimidin-5-yl]-phenyl}-3-[5-(1-trifluoromethyl-cyclopropyl)-isoxazol-3-yl]urea] | ≤ 1 | ≤ 1 | ≤ 10 | 1 to 10 | B (0.1<B≦0.2 nM) |
| O=C(Nc1ccc(-c2cnc(NCCN3CCOCC3)nc2)cc1)Nc1cccc(C(F)(F)F)c1 [Example 54, 1-(4-(2-(2-morpholinoethylamino)pyrimidin-5-yl)phenyl)-3-(3-(trifluoromethyl)phenyl)urea] | ≤ 1 | ≤ 1 | ≤ 10 | 10 to 100 | A (A≦0.1) |
| Cc1ccc(F)c(NC(=O)Nc2ccc(-c3cnc(NCCN4CCOCC4)nc3)cc2)c1 [Example 55, 1-(2-fluoro-5-methylphenyl)-3-(4-(2-(2-morpholinoethylamino)pyrimidin-5-yl)phenyl)urea] | 1 to 10 | ≤ 1 | ≤ 10 | 100 to 500 | A (A≦0.1) |
| CC(C)(C)c1cc(NC(=O)Nc2ccc(-c3cnc(CCCN4CCOCC4)nc3)cc2)no1 [Example 56, 1-(5-tert-butylisoxazol-3-yl)-3-(4-(2-(3-morpholinopropyl)pyrimidin-5-yl)phenyl)urea] | ≤ 1 | 1 to 10 | ≤ 10 | 10 to 100 | A (A≦0.1) |
| CC(C)(C)c1cc(NC(=O)Nc2ccc(-c3cnc(NCCN4CCOCC4)nc3)cc2F)no1 [Example 59] | ≤ 1 | ≤ 1 | ≤ 10 | 1 to 10 | B (0.1<B≦0.2 nM) |
| CC(C)(C)c1cc(NC(=O)Nc2ccc(-c3cnc(NCCN4CCCCC4)nc3)cc2)no1 [Example 60, 1-(5-tert-butylisoxazol-3-yl)-3-(4-(2-(2-(piperidin-1-yl)ethylamino)pyrimidin-5-yl)phenyl)urea] | ≤ 1 | 1 to 10 | ≤ 10 | 10 to 100 | B (0.1<B≦0.2 nM) |
| CC(C)(C)c1cc(NC(=O)Nc2ccc(-c3cnc(NCCN4CCOCC4)nc3)cn2)no1 [Example 61, 1-(5-tert-butylisoxazol-3-yl)-3-{5-[2-(2-morpholin-4-yl-ethylamino)pyrimidin-5-yl]pyridin-2-yl}urea] | ≤ 1 | ≤ 1 | ≤ 10 | 10 to 100 | A (A≦0.1) |

Further lines, results first:

| Kd (FLT3 kinase) [nM] | Kd (KIT kinase) [nM] | Kd (CSF-1R kinase) [nM] | IC50 (MV4-11 cells) [nM] | Kinase specificty: S(10)-359 panel [1] | SMILES |
| --- | --- | --- | --- | --- | --- |
| ≤ 1 | ≤ 1 | 10 to 100 | 100 to 500 | A (A≦0.1) | Cc1nc(N)ccc1-c1ccc(NC(=O)Nc2cc(C(C)(C)C)on2)nc1 [Example 25, 1-(6′-amino-2′-methyl-3,3′-bipyridin-6-yl)-3-(5-tert-butylisoxazol-3-yl)urea] |
| ≤ 1 | ≤ 1 | ≤ 10 | 100 to 500 | A (A≦0.1) | Cc1cc(N)ncc1-c1ccc(NC(=O)Nc2cc(C(C)(C)C)on2)nc1 [Example 26, 1-(6′-amino-4′-methyl-3,3′-bipyridin-6-yl)-3-(5-tert-butylisoxazol-3-yl)urea] |
| ≤ 1 | 1 to 10 | ≤ 10 | ≤ 1 | B (0.1<B≦0.2 nM) | CC(C)(C)c1cc(NC(=O)Nc2ccc(-c3cnc(N)nc3)cc2)no1 [Example 44, 1-(4-(2-aminopyrimidin-5-yl)phenyl)-3-(5-tert-butylisoxazol-3-yl)urea] |
| ≤ 1 | ≤ 1 | ≤ 10 | ≤ 1 | B (0.1<B≦0.2 nM) | Cc1nc(N)ncc1-c1ccc(NC(=O)Nc2cc(C(C)(C)C)on2)cc1 [Example 49, 1-(4-(2-amino-4-methylpyrimidin-5-yl)phenyl)-3-(5-tert-butylisoxazol-3-yl)urea] |
| 1 to 10 | ≤ 1 | ≤ 10 | ≤ 1 | B (0.1<B≦0.2 nM) | COc1nc(N)ncc1-c1ccc(NC(=O)Nc2cc(C(C)(C)C)on2)cc1 [Example 50, 1-[4-(2-amino-4-methoxypyrimidin-5-yl)-phenyl]-3-(5-tert-butylisoxazol-3-yl)-urea] |
| ≤ 1 | ≤ 1 | ≤ 10 | 10 to 100 | A (A≦0.1) | CN(C)CCNc1ncc(-c2ccc(NC(=O)Nc3cc(C(C)(C)C)on3)cc2)cn1 [Example 57, 1-(5-tert-butylisoxazol-3-yl)-3-(4-(2-(2-(dimethylamino)ethylamino)pyrimidin-5-yl)phenyl)urea] |
| ≤ 1 | ≤ 1 | ≤ 10 | 1 to 10 | B (0.1<B≦0.2 nM) | COCCNc1ncc(-c2ccc(NC(=O)Nc3cc(C(C)(C)C)on3)cc2)cn1 [Example 58, 1-(5-tert-butylisoxazol-3-yl)-3-{4-[2-(2-methoxyethylamino)pyrimidin-5-yl]-phenyl}urea] |
